Measurements reported in the C3SDB collision cross section collection.
Where “and” joins values, the source holds several entries; their conditions need not be identical. Equal entries are not always repeated.

Conditions: [M+NH4]+; instrument: DT; single field, calibrated with Agilent tune mix (Agilent)

| SMILES | collision cross section (N2) [Å²] |
| --- | --- |
| CC/C=C\C/C=C\C/C=C\C/C=C\C/C=C\CCCC(=O)O[C@H](COC(=O)CCCCCCCCCCCCCCC)COC(=O)CCCCCCCCCCCCCCCCCCCCC [TG(58:5)] | 334.6 |
| CCCCCCCCCCCCCCCC(=O)OC[C@@H](COC(=O)CCCCCCCCCCC)OC(=O)CCCCCCCCCCC [TG(40:0)] | 285 |

Second part, the compound after the results:

| collision cross section (N2) [Å²] | SMILES |
| --- | --- |
| 292.9 | CCCCC/C=C\C/C=C\CCCCCCCCCC(=O)OC[C@@H](COC(=O)CCCCCCCCCCC)OC(=O)CCCCCCCCCCC [TG(44:2)] |
| 314.6 | CCCCC/C=C\CCCCCCCC(=O)OC[C@H](COC(=O)CCCCCCC/C=C\CCCCCCCC)OC(=O)CCCCCCC/C=C\CCCCCCCC [TG(51:3)] |
| 308.3 | CCCCCCCC/C=C\CCCCCCCC(=O)OC[C@@H](COC(=O)CCCCCCCCCCC)OC(=O)CCCCCCC/C=C\CCCCCCCC [TG(48:2)] |
| 329.2 | CCCCC/C=C\C/C=C\CCCCCCCCCC(=O)O[C@H](COC(=O)CCCCCCCCCCCC)COC(=O)CCCCCCCCCCCCCCCCCCCCC [TG(55:2)] |
| 261.1 | CCCCCC/C=C\CCCCCCCC(=O)OC[C@H](CO)OC(=O)CCCCCCCCCCCCCCCCC [DG(34:1)] |

Conditions: [M+H]+; instrument: DT; single field

| collision cross section (N2) [Å²] | SMILES |
| --- | --- |
| 315.31 | CCCCCCCCCCCCC=CC[C@@H](O)[C@H](COP(=O)([O-])OCC[N+](C)(C)C)NC(=O)CCCCCCCCCCCCCCCCCCCCCCCCCC [SM(45:1)] |
| 278.69 | CCCCCCCCCCCCCCCCCCC(=O)O[C@H](COC(=O)CCCCCCCCCCC)COP(=O)([O-])OCC[N+](C)(C)C [PC(31:0)] |
| 281.49 | CCCC/C=C\CCCCCCCC(=O)OC[C@H](COP(=O)([O-])OCC[N+](C)(C)C)OC(=O)CCCCCCCCCCCCCCCCCC [PC(33:1)] |

Same assay, conditions: [M+NH4]+; instrument: DT; single field

| SMILES | collision cross section (N2) |
| --- | --- |
| CCCCCCCCCCCCCCCCCCC(=O)OC[C@@H](COC(=O)CCCCCCCCCCCC)OC(=O)CCCCCCCCCCCCCCCCCC [TG(51:0)] | 324.83 Å² and 327.28 Å² |
| CCCCC/C=C\C/C=C\CCCCCCCCCC(=O)OC[C@@H](COC(=O)CCCCCCC/C=C\C/C=C\CCCCC)OC(=O)CCCCCCC/C=C\CCCCCCCCC [TG(57:5)] | 334.96 Å² |
| CC/C=C\C/C=C\C/C=C\C/C=C\C/C=C\CCCC(=O)O[C@H](COC(=O)CCCCCCCCCCCCCCC)COC(=O)CCCCCCCCCCCCCCCCCCCCC [TG(58:5)] | 334.35 Å² |
| CC/C=C\C/C=C\C/C=C\C/C=C\C/C=C\C/C=C\CCC(=O)OC[C@@H](COC(=O)CCCCCCCCCCC)OC(=O)CCCCCCC/C=C\CCCCCCCC [TG(52:7)] | 313.4 Å² |
| CCCCCCCCCCCCCCCCCCCC(=O)OC[C@@H](COC(=O)CCCCCCCCCCCC)OC(=O)CCCCCCCCCCCCCCCCCCC [TG(53:0)] | 331.32 Å² |
| CC/C=C\C/C=C\C/C=C\C/C=C\C/C=C\CCCC(=O)O[C@@H](CO)COC(=O)CCCCCCC/C=C\C/C=C\CCCC [DG(37:7)] | 256.98 Å² |
| CCCCC/C=C\C/C=C\C/C=C\CCCCCCCCC(=O)OC[C@@H](COC(=O)CCCCCCC/C=C\CCCCCCC)OC(=O)CCCCCCCCC/C=C\CCCCCCCC [TG(59:5)] | 338.34 Å² and 341.2 Å² |
| CC/C=C\C/C=C\C/C=C\CCCCCCCC(=O)O[C@H](COC(=O)CCCCCCC/C=C\C/C=C\CCCCC)COC(=O)CCCCCCCC/C=C\C/C=C\C/C=C\CCCCC [TG(58:8)] | 330.76 Å² and 329.67 Å² |
| CC/C=C\C/C=C\C/C=C\C/C=C\C/C=C\CCCCCC(=O)OC[C@@H](COC(=O)CCCCCCCCCCCCCCCCC)OC(=O)CCCCCCC/C=C\C/C=C\CCCCC [TG(58:7)] | 331.34 Å² and 332.87 Å² |
| CC/C=C\C/C=C\C/C=C\C/C=C\C/C=C\C/C=C\CCC(=O)OC[C@@H](COC(=O)CCCCCCC/C=C\CCCCC)OC(=O)CCCCCCCCCCCCCCCCCCCCC [TG(59:7)] | 337.86 Å² |
| CCCCC/C=C\C/C=C\C/C=C\C/C=C\CCCC(=O)OC[C@@H](COC(=O)CCCCCCC/C=C\CCCCCC)OC(=O)CCCC/C=C\C/C=C\C/C=C\CCCCC [TG(54:8)] | 316.06 Å² |
| CCCCC/C=C\C/C=C\C/C=C\C/C=C\CCCCCC(=O)O[C@@H](CO)COC(=O)CCCC/C=C\C/C=C\C/C=C\CCCCC [DG(40:7)] | 266.8 Å² and 270.46 Å² and 267.84 Å² |
| CCCCCCCCCCCCCCCCCCCCC(=O)OC[C@@H](COC(=O)CCCCCCCCCCCC)OC(=O)CCCCCCCCCCCCCCCCCCCC [TG(55:0)] | 338.57 Å² |
| CC/C=C\C/C=C\C/C=C\C/C=C\C/C=C\C/C=C\CCC(=O)O[C@@H](CO)COC(=O)CCCCCCC/C=C\CCCC [DG(36:7)] | 252.3 Å² |
| CCCCCCCCC/C=C\CCCCCCCC(=O)OC[C@H](COC(=O)CCCCCCCCCCCCCCCCCCC)OC(=O)CCCCCCCCCCCCCCCCCCC [TG(59:1)] | 347.61 Å² |
| CCCCCCCCCCCCCCCCCC(=O)OC[C@@H](COC(=O)CCCCCCCCCCC)OC(=O)CCCCCCCCCCCCCCCCC [TG(48:0)] | 310.54 Å² and 314.67 Å² and 312.34 Å² |
| CCCC/C=C\C/C=C\CCCCCCCC(=O)OC[C@H](COC(=O)CCCCCCCCCCCCCCCCCCCCC)OC(=O)CCCCCCCCCCCCCCCCCCC [TG(59:2)] | 343.68 Å² and 345.92 Å² |

Further lines, results first:

| collision cross section (N2) | SMILES |
| --- | --- |
| 294.01 Å² and 295.78 Å² and 296.41 Å² | CCCCC/C=C\C/C=C\CCCCCCCCCC(=O)OC[C@@H](COC(=O)CCCCCCCCCCC)OC(=O)CCCCCCCCCCC [TG(44:2)] |
| 314.4 Å² and 316.33 Å² and 320.05 Å² | CCCCC/C=C\CCCCCCCC(=O)OC[C@H](COC(=O)CCCCCCC/C=C\CCCCCCCC)OC(=O)CCCCCCC/C=C\CCCCCCCC [TG(51:3)] |
| 307.53 Å² and 309.7 Å² and 313.52 Å² | CCCCCCCC/C=C\CCCCCCCC(=O)OC[C@@H](COC(=O)CCCCCCCCCCC)OC(=O)CCCCCCC/C=C\CCCCCCCC [TG(48:2)] |
| 332.67 Å² and 335.01 Å² | CCCCC/C=C\C/C=C\CCCCCCCCCC(=O)O[C@H](COC(=O)CCCCCCCCCCCC)COC(=O)CCCCCCCCCCCCCCCCCCCCC [TG(55:2)] |
| 260.44 Å² and 262.5 Å² | CCCCCC/C=C\CCCCCCCC(=O)OC[C@H](CO)OC(=O)CCCCCCCCCCCCCCCCC [DG(34:1)] |
| 255.58 Å² | CCCCCCCCCCCCCCCCCCCC(=O)O[C@@H](CO)COC(=O)CCCCCCCCCCC [DG(32:0)] |
| 319.62 Å² | CCCCCCCCCCCCCCCCCCCCCCC=CCC(=O)OC[C@H](CO)OC(=O)CC=CCCCCCCCCCCCCCCCCCCCCCC [DG(52:2)] |
| 253.01 Å² | CCCCC/C=C\C/C=C\CCCCCCCC(=O)O[C@@H](CO)COC(=O)CCCCCCCCCCCCC [DG(32:2)] |
| 266.09 Å² | CCCCC/C=C\C/C=C\CCCCCCCCCCCC(=O)O[C@@H](CO)COC(=O)CCCCCCCCCCCCC [DG(36:2)] |
| 286.83 Å² and 289.71 Å² | CCCC/C=C\CCCCCCCC(=O)O[C@@H](COC(=O)CCCCCCC/C=C\CCCCC)COC(=O)CCCCCCCCCCCC [TG(42:2)] |

Same assay, conditions: [M+Na]+; instrument: DT; single field

| SMILES | collision cross section (N2) |
| --- | --- |
| CCCCCCCCCCCCCCCC(=O)OC[C@@H](COC(=O)CCCCCCCCCCC)OC(=O)CCCCCCCCCCC [TG(40:0)] | 282.67 Å² and 283.77 Å² |
| C(OC(=O)CCCCCCCCCCCCC)[C@]([H])(OC(CCCCCCCCCCCCC)=O)COC(CCCCCCCCCCCCC)=O [TG(42:0)] | 289.67 Å² and 290.31 Å² |
| CCCCCCCCCCCCCCCCCCCCC(=O)O[C@H](COC(=O)CCCCCCCCCCC)COP(=O)([O-])OCC[N+](C)(C)C [PC(33:0)] | 284.2 Å² |
| CC/C=C\C/C=C\C/C=C\C/C=C\C/C=C\CCCCCC(=O)OC[C@@H](COC(=O)CCCCCCCCCCCCCCCCC)OC(=O)CCCCCCC/C=C\C/C=C\CCCCC [TG(58:7)] | 331.1 Å² |
| CCCCCCCCC/C=C\CCCCCCCC(=O)OC[C@@H](COC(=O)CCCCCCCCCCCCCCC)OC(=O)CCCCCCC/C=C\CCCCCCCCC [TG(54:2)] | 324.71 Å² and 326.86 Å² |

Further lines, results first:

| collision cross section (N2) | SMILES |
| --- | --- |
| 292.91 Å² and 295.34 Å² | CCCCC/C=C\C/C=C\CCCCCCCCCC(=O)OC[C@@H](COC(=O)CCCCCCCCCCC)OC(=O)CCCCCCCCCCC [TG(44:2)] |
| 313.29 Å² and 315.37 Å² | CCCCC/C=C\CCCCCCCC(=O)OC[C@H](COC(=O)CCCCCCC/C=C\CCCCCCCC)OC(=O)CCCCCCC/C=C\CCCCCCCC [TG(51:3)] |
| 306.66 Å² and 308.69 Å² | CCCCCCCC/C=C\CCCCCCCC(=O)OC[C@@H](COC(=O)CCCCCCCCCCC)OC(=O)CCCCCCC/C=C\CCCCCCCC [TG(48:2)] |
| 283.22 Å² | CCCC/C=C\CCCCCCCC(=O)OC[C@H](COP(=O)([O-])OCC[N+](C)(C)C)OC(=O)CCCCCCCCCCCCCCCCCC [PC(33:1)] |
| 285.72 Å² and 288.76 Å² | CCCC/C=C\CCCCCCCC(=O)O[C@@H](COC(=O)CCCCCCC/C=C\CCCCC)COC(=O)CCCCCCCCCCCC [TG(42:2)] |
